Test results published in PubChem BioAssay AID248 (DTP/NCI, 2004).
“And” between values parts separate entries of the source, which are not always exact repeats. Identical values can stand only once. Inconclusive results and toxic doses are left out. No stated cut-off is given here; in the data, active means T/C of 150% or more; inactive means T/C below 125%.

Tested on: L1210 leukemia ip in BDF1 mice, survival T/C
Experiment: NCI In Vivo Anticancer Drug Screen. Data for tumor model L1210 Leukemia (intraperitoneal) in B6D2F1 (BDF1) mice
Details: endpoint: mean survival time, higher = longer survival
Method in brief: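 Transplanted-tumor mice were given test agent; controls received vehicle only. Survival readings from the two groups were divided (treated over control).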

[1] = dose: 100.0 mg/kg/injection, schedule: Q01DX001 (ip), vehicle: carboxymethylcellulose (CMC)
[2] = dose: 200.0 mg/kg/injection, schedule: Q01DX001 (ip), vehicle: carboxymethylcellulose (CMC)
[3] = dose: 400.0 mg/kg/injection, schedule: Q01DX001 (ip), vehicle: carboxymethylcellulose (CMC)
[4] = dose: 50.0 mg/kg/injection, schedule: Q01DX009 (ip), vehicle: saline
[5] = dose: 50.0 mg/kg/injection, schedule: Q04DX003 (ip), vehicle: saline
[6] = dose: 100.0 mg/kg/injection, schedule: Q01DX009 (ip), vehicle: saline
[7] = dose: 100.0 mg/kg/injection, schedule: Q04DX003 (ip), vehicle: saline
[8] = dose: 100.0 mg/kg/injection, schedule: Q01DX001 (ip), vehicle: saline
[9] = dose: 200.0 mg/kg/injection, schedule: Q01DX001 (ip), vehicle: saline
[10] = dose: 400.0 mg/kg/injection, schedule: Q01DX001 (ip), vehicle: saline
[11] = dose: 100.0 mg/kg/injection, schedule: Q01DX009 (ip), vehicle: Klucel (hydroxypropylcellulose) (HPC)
[12] = dose: 200.0 mg/kg/injection, schedule: Q01DX009 (ip), vehicle: Klucel (hydroxypropylcellulose) (HPC)
[13] = dose: 400.0 mg/kg/injection, schedule: Q01DX009 (ip), vehicle: Klucel (hydroxypropylcellulose) (HPC)
[14] = dose: 200.0 mg/kg/injection, schedule: Q04DX003 (ip), vehicle: saline
[15] = dose: 100.0 mg/kg/injection, schedule: Q01DX009 (ip), vehicle: saline with Tween-80
[16] = dose: 200.0 mg/kg/injection, schedule: Q01DX009 (ip), vehicle: saline with Tween-80
[17] = dose: 400.0 mg/kg/injection, schedule: Q01DX009 (ip), vehicle: saline with Tween-80
[18] = dose: 100.0 mg/kg/injection, schedule: Q04DX003 (ip), vehicle: saline with Tween-80
[19] = dose: 200.0 mg/kg/injection, schedule: Q04DX003 (ip), vehicle: saline with Tween-80
[20] = dose: 400.0 mg/kg/injection, schedule: Q04DX003 (ip), vehicle: saline with Tween-80
[21] = dose: 400.0 mg/kg/injection, schedule: Q04DX003 (ip), vehicle: saline
[22] = dose: 400.0 mg/kg/injection, schedule: Q04DX002 (ip), vehicle: saline with Tween-80

Measured: T/C

O=C1C(=O)c2cc(Cl)ccc2-c2ccccc21
inactive: dose: 50.0 mg/kg/injection, schedule: Q01DX001 (ip), vehicle: carboxymethylcellulose (CMC) 100 % of control | [1] 102 % of control | [2] 100 % of control | [3] 105 % of control

Oc1cccnc1CN1CCCCC1
inactive: dose: 25.0 mg/kg/injection, schedule: Q01DX009 (ip), vehicle: saline 100 % of control | [4] 91 % of control | [5] 97 % of control | [6] 96 % of control | [7] 97 % of control

CCCCC(=O)N/N=C/c1ccc(O)cc1O
inactive: [8] 97 % of control | [9] 92 % of control | [10] 94 % of control

O=C(O)c1cnc[nH]1
inactive: [11] 100 % of control | [12] 92 % of control | [13] 94 % of control

CS(=O)(=O)OC[C@H](OS(=O)(=O)O)[C@H](COS(C)(=O)=O)OS(=O)(=O)O
inactive: [4] 106 % of control | [5] 89 % of control | [8] 89 % of control | [6] 95 % of control | [7] 96 % of control | [9] 95 % of control | dose: 200.0 mg/kg/injection, schedule: Q01DX009 (ip), vehicle: saline 98 % of control | [14] 91 % of control

C=CC1(C)CCC2C(=CCC3C(C)(C(=O)O)CCCC23C)C1 (stereo not given) (tested in a mixture with another compound)
inactive: [1] 104 % of control | [2] 95 % of control | [3] 95 % of control

O=C1C=CC(=O)C2C1C1(Cl)CC2(Cl)C(Cl)=C1Cl (stereo not given)
inactive: dose: 6.25 mg/kg/injection, schedule: Q04DX002 (ip), vehicle: Klucel (hydroxypropylcellulose) (HPC) 100 % of control | dose: 12.5 mg/kg/injection, schedule: Q04DX002 (ip), vehicle: Klucel (hydroxypropylcellulose) (HPC) 95 % of control | dose: 25.0 mg/kg/injection, schedule: Q04DX002 (ip), vehicle: Klucel (hydroxypropylcellulose) (HPC) 100 % of control and 108 % of control

CC(C)=CCC(CCN(C)C)(C(N)=O)c1cccc2ccccc12 (stereo not given)
inactive: dose: 5.0 mg/kg/injection, schedule: Q01DX009 (ip), vehicle: Klucel (hydroxypropylcellulose) (HPC) 102 % of control | dose: 5.0 mg/kg/injection, schedule: Q04DX003 (ip), vehicle: Klucel (hydroxypropylcellulose) (HPC) 94 % of control | dose: 10.0 mg/kg/injection, schedule: Q01DX009 (ip), vehicle: Klucel (hydroxypropylcellulose) (HPC) 93 % of control | dose: 10.0 mg/kg/injection, schedule: Q04DX003 (ip), vehicle: Klucel (hydroxypropylcellulose) (HPC) 91 % of control | dose: 20.0 mg/kg/injection, schedule: Q01DX009 (ip), vehicle: Klucel (hydroxypropylcellulose) (HPC) 91 % of control | dose: 20.0 mg/kg/injection, schedule: Q04DX003 (ip), vehicle: Klucel (hydroxypropylcellulose) (HPC) 96 % of control

COc1ccc(-c2nc(-c3cccc(O)c3)[nH]c2-c2ccc(OC)cc2)cc1
inactive: [15] 93 % of control | [16] 98 % of control | [17] 105 % of control

O=C(Nc1cc(C(F)(F)F)cc(C(F)(F)F)c1)Nc1ccc(Oc2ccccc2Cl)c(S(=O)(=O)O)c1
inactive: dose: 100.0 mg/kg/injection, schedule: Q04DX003 (ip), vehicle: saline sonified 117 % of control | dose: 200.0 mg/kg/injection, schedule: Q04DX003 (ip), vehicle: saline sonified 115 % of control | dose: 400.0 mg/kg/injection, schedule: Q04DX003 (ip), vehicle: saline sonified 121 % of control

CC(C)=CCCC(C)C/C=N\O (stereo not given)
inactive: [15] 101 % of control | [18] 100 % of control | [16] 104 % of control | [19] 103 % of control | [20] 106 % of control

Cn1cnc2ncnn2c1=S
inactive: [4] 114 % of control | [7] 103 % of control | [14] 105 % of control

Cc1cc(=O)[nH]c(N(CCO)CCO)n1
inactive: [15] 92 % of control | [18] 94 % of control | [16] 100 % of control | [19] 96 % of control | [17] 100 % of control | [20] 100 % of control

Nc1nnc(N)n1N
inactive: dose: 87.5 mg/kg/injection, schedule: Q04DX003 (ip), vehicle: Klucel (hydroxypropylcellulose) (HPC) 105 % of control | dose: 175.0 mg/kg/injection, schedule: Q04DX003 (ip), vehicle: Klucel (hydroxypropylcellulose) (HPC) 100 % of control | dose: 350.0 mg/kg/injection, schedule: Q04DX003 (ip), vehicle: Klucel (hydroxypropylcellulose) (HPC) 103 % of control

CP1(=O)CCC(=O)C1 (stereo not given)
inactive: [7] 98 % of control | [14] 110 % of control | [21] 104 % of control

CCCCNC(C)(C)C(S)c1ccc(Cl)cc1 (stereo not given)
inactive: dose: 12.0 mg/kg/injection, schedule: Q01DX009 (ip), vehicle: Klucel (hydroxypropylcellulose) (HPC) 104 % of control | dose: 25.0 mg/kg/injection, schedule: Q01DX009 (ip), vehicle: Klucel (hydroxypropylcellulose) (HPC) 108 % of control

Cc1ccc(S(=O)(=O)OCC2OC(n3ccc(=O)[nH]c3=O)C3OC(C)(C)OC23)cc1 (stereo not given)
inactive: dose: 100.0 mg/kg/injection, schedule: Q01DX005 (ip), vehicle: saline 122 % of control

CCN(CC)C(=O)Cn1cc(F)c(NC(C)=O)nc1=O
inactive: [7] 97 % of control | [14] 101 % of control | [21] 101 % of control

C/C(=N\N=C(/C)c1ccc(C)cc1C)c1ccc(C)cc1C
inactive: dose: 100.0 mg/kg/injection, schedule: Q04DX002 (ip), vehicle: saline with Tween-80 98 % of control | dose: 200.0 mg/kg/injection, schedule: Q04DX002 (ip), vehicle: saline with Tween-80 95 % of control | [22] 103 % of control

C[Si](C)(C)Cc1cccc(F)c1
inactive: dose: 25.6 mg/kg/injection, schedule: Q04DX002 (ip), vehicle: saline with Tween-80 93 % of control | dose: 64.0 mg/kg/injection, schedule: Q04DX002 (ip), vehicle: saline with Tween-80 90 % of control | dose: 160.0 mg/kg/injection, schedule: Q04DX002 (ip), vehicle: saline with Tween-80 87 % of control | [22] 97 % of control

O=C(CCCC(=O)N/N=C/c1c[nH]c2ccc(Br)cc12)N/N=C\c1c[nH]c2ccc(Br)cc12
inactive: dose: 50.0 mg/kg/injection, schedule: Q01DX001 (ip), vehicle: saline 105 % of control | [8] 102 % of control | [9] 107 % of control | [10] 96 % of control

Cc1nc(N)cc(=O)[nH]1
inactive: dose: 100.0 mg/kg/injection, schedule: Q01DX009 (ip), vehicle: water 112 % of control | dose: 100.0 mg/kg/injection, schedule: Q04DX003 (ip), vehicle: water 97 % of control | dose: 200.0 mg/kg/injection, schedule: Q01DX009 (ip), vehicle: water 104 % of control | dose: 200.0 mg/kg/injection, schedule: Q04DX003 (ip), vehicle: water 97 % of control | dose: 400.0 mg/kg/injection, schedule: Q04DX003 (ip), vehicle: water 97 % of control

CSc1ccc(NC(=O)Nc2cccc(C)c2C)cc1
inactive: [11] 92 % of control | [12] 95 % of control | [13] 103 % of control

COC(=O)C1=NNC(c2ccc(OC)cc2)C1 (stereo not given)
inactive: dose: 100.0 mg/kg/injection, schedule: Q01DX001 (ip), vehicle: steriod suspending solution 115 % of control | dose: 200.0 mg/kg/injection, schedule: Q01DX001 (ip), vehicle: steriod suspending solution 97 % of control | dose: 400.0 mg/kg/injection, schedule: Q01DX001 (ip), vehicle: steriod suspending solution 103 % of control

O=c1[nH]c(=O)c2c3c(sc2[nH]1)CCCC3
inactive: dose: 100.0 mg/kg/injection, schedule: Q01DX001 (ip), vehicle: saline sonified 91 % of control | dose: 200.0 mg/kg/injection, schedule: Q01DX001 (ip), vehicle: saline sonified 91 % of control | dose: 400.0 mg/kg/injection, schedule: Q01DX001 (ip), vehicle: saline sonified 103 % of control

O=CC(S)CO (stereo not given)
inactive: [9] 103 % of control | [10] 97 % of control | dose: 800.0 mg/kg/injection, schedule: Q01DX001 (ip), vehicle: saline 108 % of control
